Results reported in US6143730A, “Preparation and use of sulfated oligosaccharides” (priority 1995, dated 2000).
In brackets after ≈: the same amount, converted by molar mass. Like-named read-outs stand apart in the source and are kept apart here. Values belong to the compound of their own block, whether it stands above or below them.

Legend:
aFGF = aFGF (Homo sapiens, UniProt P05230); test: Binding of BALB/c 3T3 cells (cell surface heparan sulfate) to immobilised aFGF; assay type: cell-based; conditions: binding of mouse 3T3 cells to immobilised aFGF
Chain of aFGF (P05230 whole entry, species assumed): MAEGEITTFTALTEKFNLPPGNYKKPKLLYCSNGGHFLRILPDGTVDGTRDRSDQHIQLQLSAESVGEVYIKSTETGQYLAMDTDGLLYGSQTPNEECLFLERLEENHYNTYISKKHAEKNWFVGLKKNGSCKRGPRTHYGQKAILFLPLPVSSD
Protocol: (§1) The FGF-heparan sulfate interaction was assessed, as reported earlier (39), by measuring the binding of BALB/c 3T3 fibroblasts to PVC immobilised FGFs, cell binding being detected by Rose Bengal staining of adherent cells. Sulfated oligosaccharides were examined for their ability to inhibit this cell adhesion process, which is totally dependent upon heparan sulfate structures on the surface of BALB/c 3T3 cells (39).

bFGF = bFGF (Homo sapiens, UniProt P09038); test: Binding of BALB/c 3T3 cells (cell surface heparan sulfate) to immobilised bFGF; assay type: cell-based; conditions: binding of mouse 3T3 cells to immobilised bFGF
Chain of bFGF (P09038 134-288, species assumed): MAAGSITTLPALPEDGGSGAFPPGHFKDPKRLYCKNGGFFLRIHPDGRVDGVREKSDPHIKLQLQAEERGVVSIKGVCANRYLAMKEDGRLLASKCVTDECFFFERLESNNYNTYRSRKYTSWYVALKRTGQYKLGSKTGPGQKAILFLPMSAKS
Protocol: as §1

[1] = tested on: thrombin time and activated partial thromboplastin time; test: Anticoagulant activity (thrombin time and activated partial thromboplastin time); assay type: biochemical; conditions: percentage of heparin activity (100%)
Protocol: The anticoagulant activity of each sulfated oligosaccharide was assessed as previously described (35), using both thrombin time and activated partial thromboplastin time procedures. The activity of each preparation was compared with a heparin control and anticoagulant activity expressed as a percentage of heparin activity.

[2] = target: T1, human platelet heparanase (Homo sapiens, UniProt Q9Y251); test: Heparanase inhibition assay; assay type: biochemical
T1 construct: from tissue; host or cells: human platelets
T1 sequence (Q9Y251 158-543 limits assumed): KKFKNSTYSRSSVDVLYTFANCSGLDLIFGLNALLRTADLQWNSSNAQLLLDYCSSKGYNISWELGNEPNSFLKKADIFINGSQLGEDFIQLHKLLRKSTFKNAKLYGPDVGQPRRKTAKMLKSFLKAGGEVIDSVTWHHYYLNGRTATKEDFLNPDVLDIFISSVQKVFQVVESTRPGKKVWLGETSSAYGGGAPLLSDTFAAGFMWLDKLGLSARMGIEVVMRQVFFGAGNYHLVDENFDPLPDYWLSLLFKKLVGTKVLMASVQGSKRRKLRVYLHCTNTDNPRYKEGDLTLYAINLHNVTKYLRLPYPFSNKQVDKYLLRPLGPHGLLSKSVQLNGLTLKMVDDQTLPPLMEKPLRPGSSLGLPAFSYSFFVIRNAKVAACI
T1 sequence (Q9Y251 36-109 limits assumed): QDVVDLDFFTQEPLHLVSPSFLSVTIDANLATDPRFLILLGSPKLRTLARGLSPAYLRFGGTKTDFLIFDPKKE
Description: The heparanase assay is based on the observation that the serum protein, histidine-rich glycoprotein (HRG), binds to heparan sulfate chains and masks the heparanase cleavage site. Based on the finding that heparanase-cleaved heparan sulfate fails to bind to HRG a heparanase assay has been developed which involves digesting ^3 H-labelled heparan sulfate chains with heparanase, binding the digested heparan sulfate to HRG coupled beads and measuring unbound ^3 H label. With increasing digestion of the substrate an increasing amount of ^3 H label fails to bind to the HRG beads.
Initially, bovine intestinal heparan sulfate (Mr av 32 kDa) was partially de-N-acetylated by heating in hydrazine hydrate (36) and re-acetylated with ^3 H-acetic anhydride.
Activity was determined by the rate of production of smaller (approx 5 kDa) heparan sulfate fragments that were not bound following passage of the incubation mixture (100 μl) through HRG-Sepharose mini-columns (200 μl packed beads) which retained the larger uncleaved and partially cleaved substrate.
In heparanase-inhibition assays, different concentrations of inhibitor were added to the enzyme prior to addition of radiolabelled substrate, the inhibitor being retained in the reaction mixture throughout the incubation period.

air pouch inflammation = test: Air pouch inflammation model (thioglycollate); assay type: in vivo, mouse; conditions: 25 mg/kg subcut., ± SEM
Protocol: The assay is based on a previously reported procedure (40). Subcutaneous air pouches were formed on the backs of mice by injecting 5 ml of sterile air below the skin of a shaved area between the scapulae of an anaesthetised mouse on day 1. On day 3 the pouch was reinflated by the injection of 2.5 ml of air. Inflammation was induced on day 6 by injecting directly into the pouch 1.0 ml of 56 mg/ml thioglycollate or 1.0 ml of saline as a control. Approximately 17-20 hrs after thioglycollate injection the animals were killed by cervical dislocation and the cellular contents of the pouch retrieved by the injection of 2.5 ml of ice cold PBS/5% FCS. Sulfated oligosaccharides were tested for their ability to inhibit the inflammatory reaction by being injected subcut. (50 μl in PBS) in a separate site immediately following administration of the thioglycollate. Prednisolone was used as a control anti-inflammatory drug, being injected subcut. in oil at 25 mg/kg. The total cellular contents of each pouch was determined using a Coulter Counter and different leukocyte subpopulations were assessed by immunofluorescent flow cytometry.

[3] = target: T1, human platelet heparanase; conditions: reference 42; cited from earlier work
[4] = tested on: human angiogenesis in vitro; test: Human angiogenesis assay (placental blood vessel fragments in fibrin gel); assay type: cell-based; conditions: for inhibition of human angiogenesis: in words
Protocol: The assay method used is described in International Patent Application No. PCT/AU95/00105, the disclosure of which is incorporated herein by reference. Blood vessels, approx 1-2 mm in diameter and 2-5 cm in length, were excised from the surface of human placentas within 6 hours of birth. The vessels were placed in Hank's BSS containing […] of fungizone and cut into 1-2 mm length fragments using fine dissecting forceps and iridectomy scissors. Vessel fragments were freed of residual clots and soaked in Hank's BSS before use. Dissecting and sectioning of vessels was performed with the aid of a magnifier lamp (Maggylamp, Newbound, Balmain, NSW, Australia). Similar angiogenic responses were obtained from blood vessels of venular and arterial origin but, for each assay, vessel fragments from only one vessel were used.
Angiogenesis assays were performed in 24 or 48 well culture plates (Costar, Cambridge, Mass.). In the 24 well format, 30 μl of bovine thrombin (50 NIH units/ml in 0.15 M NaCl; Sigma Chemical Co., St Louis, Mo.) was added to each well followed by 1.0 ml/well of 3 mg/ml bovine fibrinogen (Sigma) in Medium 199. The thrombin and fibrinogen were mixed rapidly and one vessel fragment quickly placed in the centre of the well before clot formation. Usually fibrin gel formation occurred in 30 seconds and the vessel fragment was left suspended in the gel. Following gel formation 1.0 ml/well of Medium 199 supplemented with 20% foetal calf serum (FCS), 0.2 mg ε-amino caproic acid, L-glutamine and antibiotics (gentamycin and fungazone) was added. In the 48 well format all reagent volumes were halved. Vessels were cultured at 37° C. in a humidified environment for 14-21 days with the medium being changed twice weekly. Angiogenesis was quantified by computer based image analysis, using NIH Image software, of digital images of the cultures obtained with a Dycam digital camera mounted on an inverted microscope (Olympus, Tokyo, Japan).

[5] = tested on: rat mammary adenocarcinoma 13762 MAT; test: Metastasis assay (lung metastases of 13762 MAT); assay type: in vivo; conditions: for Metastasis (% Control): 13762 MAT cells i.v., 2 mg/rat at time of tumour cell injection, lungs, ± SEM (n = 4)
Protocol: The antimetastatic activity of the different sulfated oligosaccharides was assessed using the highly metastatic rat mammary adenocarcinoma 13762 MAT (35). The tumour cells were maintained in vitro as previously described (35). Female Fisher 344 rats, (10-13 weeks of age) were injected i.v. with 2×10^5 13762 MAT cells in 0.6 ml RPMI 1640 medium containing 10% FCS. At the time of tumour cell injection animals were also injected with 2 mg of sulfated oligosaccharide, similar results being obtained if the oligosaccharide was injected i.v., i.p. or subcut. Lungs were removed from the rats 13 days following tumour cell injection, placed in Bouin's solution for at least 24 hours and lung metastases then assessed under a dissecting microscope. The number of lung metastases in sulfated oligosaccharide treated rats was compared with that observed in control animals, with a minimum of four animals being included in each group.

[6] = tested on: human angiogenesis in vitro; conditions: reference 42; cited from earlier work

Compound: O=S(=O)(O)OC[C@H]1O[C@H](O[C@H]2[C@H](OS(=O)(=O)O)[C@@H](OS(=O)(=O)O)[C@@H](O[C@H]3[C@H](OS(=O)(=O)O)[C@@H](OS(=O)(=O)O)[C@@H](O[C@H]4[C@H](OS(=O)(=O)O)[C@@H](OS(=O)(=O)O)C(OS(=O)(=O)O)O[C@@H]4COS(=O)(=O)O)O[C@@H]3COS(=O)(=O)O)O[C@@H]2COS(=O)(=O)O)[C@H](OS(=O)(=O)O)[C@@H](OS(=O)(=O)O)[C@@H]1O[C@H]1O[C@H](COS(=O)(=O)O)[C@@H](O[C@H]2O[C@H](COS(=O)(=O)O)[C@@H](OS(=O)(=O)O)[C@H](OS(=O)(=O)O)[C@H]2OS(=O)(=O)O)[C@H](OS(=O)(=O)O)[C@H]1OS(=O)(=O)O (some centres unmarked) [Maltohexaose 20/20]
IC50 (aFGF; read-out: IC50 aFGF, Table 2): 7600 nM
IC50 (bFGF; read-out: IC50 bFGF, Table 2): 2080 nM
Anticoagulant Activity ([1]; Table 2): 3.3%
IC50 ([2]; read-out: IC50 Heparanase, Table 2): 1930 nM

Compound: C[C@]12C=CC(=O)C=C1CC[C@@H]1[C@@H]2[C@@H](O)C[C@@]2(C)[C@H]1CC[C@]2(O)C(=O)CO [Prednisolone]
Leukocyte Infiltrate in Air Pouch (% Control) (air pouch inflammation; Expt 1): 56 ± 14%
Leukocyte Infiltrate in Air Pouch (% Control) (air pouch inflammation; Expt 2): 44 ± 3%

Compound: Cc1ccc(C(=O)Nc2ccc(S(=O)(=O)O)c3cc(S(=O)(=O)O)cc(S(=O)(=O)O)c23)cc1NC(=O)c1cccc(NC(=O)Nc2cccc(C(=O)Nc3cc(C(=O)Nc4ccc(S(=O)(=O)O)c5cc(S(=O)(=O)O)cc(S(=O)(=O)O)c45)ccc3C)c2)c1 [Suramin]
heparanase inhibitory activity [3]: moderate anti-angiogenic and heparanase inhibitory activity
IC50 ([4]; Homo sapiens, Table 1, added at commencement of culture, read-out: 50% Inhibitory Concn, Angiogenesis): 50 µg/mL (≈ 38.5 µM)
Anticoagulant Activity ([1]; Table 1): 0.1%
Metastasis (% Control) [5]: 74 ± 8%
anti-angiogenic activity [6]: moderate anti-angiogenic and heparanase inhibitory activity

Compound: Galactotetraose
IC50 bFGF (bFGF; Table 3): 9 µg/mL
Anticoagulant Activity ([1]; Table 3): 1.0%
IC50 Heparanase ([2]; Table 3): 3.5 µg/mL

Compound: Mannotetraose
IC50 aFGF (aFGF; Table 3): 5 µg/mL
IC50 bFGF (bFGF; Table 3): 20 µg/mL
Anticoagulant Activity ([1]; Table 3): 0.4%
IC50 Heparanase ([2]; Table 3): 6 µg/mL

Compound: Mannotriose
Anticoagulant Activity ([1]; Table 3): 0.3%
IC50 Heparanase ([2]; Table 3): 25 µg/mL

More lines, main results first:

50% Inhibitory Concn, Heparanase ([2]; Table 1): 1 µg/mL
Compound: Heparin
50% Inhibitory Concn, Angiogenesis ([4]; Table 1, added at commencement of culture): > 2000 µg/mL
inhibition of human angiogenesis [4]: little anti-angiogenic activity
Anticoagulant Activity ([1]; Table 1): 100%
Metastasis (% Control) [5]: 20 ± 3%

IC50 aFGF (aFGF; Table 2): 27 µg/mL
IC50 bFGF (bFGF; Table 2): 10 µg/mL
IC50 Heparanase ([2]; Table 2): 3 µg/mL
Compound: Maltoheptaose
Anticoagulant Activity ([1]; Table 2): 3.9%

IC50 aFGF (aFGF; Table 2): 27 µg/mL
IC50 bFGF (bFGF; Table 2): 37.5 µg/mL
IC50 Heparanase ([2]; Table 2): 4 µg/mL
Compound: Maltopentaose
inhibition of human angiogenesis [4]: potent antimetastatic and anti-angiogenic activity
Anticoagulant Activity ([1]; Table 2): 3.2%
antimetastatic activity ([5]; in words): potent antimetastatic and anti-angiogenic activity

IC50 aFGF (aFGF; Table 2): 58.7 µg/mL
IC50 bFGF (bFGF; Table 2): 145 µg/mL
IC50 Heparanase ([2]; Table 2): 100 µg/mL
heparanase inhibitory activity ([2]; in words): weakly inhibitory
Compound: Maltotriose
Anticoagulant Activity ([1]; Table 2): 0.8%

IC50 aFGF (aFGF; Table 3): 5 µg/mL
IC50 bFGF (bFGF; Table 3): 11 µg/mL
IC50 Heparanase ([2]; Table 3): 3 µg/mL
Compound: Mannohexaose
Anticoagulant Activity ([1]; Table 3): 0.8%
